The structures appear in SMILES notation. Read-outs that look alike come from different tables or passages of the source. A value given as a limit tells only on which side of the number the result lay.

This note sets out measurements from patent US7772241B2, “Variolin derivatives and their use as antitumor agents” (Pharma Mar S.A., priority 2001, dated 2010).

Data set [1] concerns HT-29. As to the kind of experiment: Inhibition of cells growth by colorimetric (SRB) assay, HT-29. Put shortly:
(§1)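 Human tumour cells seeded at 5×10^3/well in RPMI 1640 10% FBS, attached 18 h, then exposed 48 h to samples at 10 to 10^−8 μg/ml in DMSO/EtOH/PBS (0.5:0.5:99). Growth read by SRB staining after TCA fixation, OD 490 nm, triplicate wells; GI, TGI and LC derived.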

The subject of data set [2] is HMEC1. Briefly: Inhibition of cells growth by colorimetric (SRB) assay, HMEC1. The note with it: for H-MEC-1 TGI / TGI H-MEC-1: in M (unit assumed); for CC50: read-out: LC50 H-MEC-1.
Assay in data set [3]: as above
The note with it: human, HMEC1 cells, 48 hours exposure.

Data set [4] concerns A-549. Briefly: Inhibition of cells growth by colorimetric (SRB) assay, A-549. Put shortly: as §1
Data set [5] relates to IGROV-ET. As to the kind of experiment: Inhibition of cells growth by colorimetric (SRB) assay, IGROV-ET. The note with it: SRB assay, 48 hours exposure; for GI50: read-out: GI50 IGROV-ET; for CC50: read-out: LC50 IGROV-ET. Put shortly: as §1
In general terms: Sulforhodamine B stains cellular protein and so reports cell mass.

Data set [6] deals with SK-OV-3. As to the kind of experiment: Inhibition of cells growth by colorimetric (SRB) assay, SK-OV-3. The following applies: for GI50: Homo sapiens, SK-OV-3, 48 h, read-out: GI50 SKOV-3, SRB assay, 48 hours exposure; for TGI SKOV-3 / CC50: SRB assay, 48 hours exposure; for CC50: read-out: LC50 SKOV-3. Put shortly: as §1
In data set [7] the test system is IGROV-1. As to the kind of experiment: Inhibition of cells growth by colorimetric (SRB) assay, IGROV-1. The note with it: SRB assay, 48 hours exposure; for GI50: read-out: GI50 IGROV; for CC50: read-out: LC50 IGROV. The essentials: as §1
Data set [8] concerns LoVo-Dox. Briefly: Inhibition of cells growth by colorimetric (SRB) assay, LoVo-Dox. The following applies: SRB assay, 48 hours exposure; for GI50: read-out: GI50 LOVO-DOX; for CC50: read-out: LC50 LOVO-DOX. Put shortly:
as §1

The subject of data set [9] is PANC-1. Briefly: Inhibition of cells growth by colorimetric (SRB) assay, PANC-1. The note with it: SRB assay, 48 hours exposure; for GI50: read-out: GI50 PANC-1. The essentials: as §1
The subject of data set [10] is SK-MEL-28. As to the kind of experiment: Inhibition of cells growth by colorimetric (SRB) assay, SK-MEL-28. The note with it: SRB assay, 48 hours exposure; for GI50: read-out: GI50 MEL-28; for CC50: read-out: LC50 MEL-28. The essentials:
as §1

Data set [11] relates to DU-145. Briefly: Inhibition of cells growth by colorimetric (SRB) assay, DU-145. The note with it: SRB assay, 48 hours exposure; for GI50: read-out: GI50 DU-145; for CC50: read-out: LC50 DU-145. Put shortly: as §1
Data set [12] has as its system K-562. As to the kind of experiment: Inhibition of cells growth by colorimetric (SRB) assay, K-562. The following applies: SRB assay, 48 hours exposure; for GI50: read-out: GI50 K-562; for CC50: read-out: LC50 K-562. The essentials:
as §1

The test system of data set [13] is LoVo. As to the kind of experiment: Inhibition of cells growth by colorimetric (SRB) assay, LoVo. The note with it: SRB assay, 48 hours exposure; for GI50: read-out: GI50 LOVO; for CC50: read-out: LC50 LOVO. Put shortly:
as §1

Data set [14] has as its system SK-BR-3. Briefly: Inhibition of cells growth by colorimetric (SRB) assay, SK-BR-3. The note with it: SRB assay, 48 hours exposure; for GI50: read-out: GI50 SK-BR-3; for CC50: read-out: LC50 SK-BR-3. Put shortly: as §1
For data set [15], the system named is LNCaP. Briefly: Inhibition of cells growth by colorimetric (SRB) assay, LNCaP. The following applies: for CC50: read-out: LC50 LN-caP, SRB assay, 48 hours exposure. The essentials: as §1
The mark [16] stands for this setting: Homo sapiens, HT-29, 48 h, read-out: HT-29 GI50, SRB assay, 48 hours exposure.
The mark [17] stands for this setting: Homo sapiens, HT-29, 48 h, read-out: HT-29 LC50, SRB assay, 48 hours exposure.
Setting [18] is: Homo sapiens, HMEC-1, 48 h, read-out: H-MEC-1 GI50, SRB assay, 48 hours exposure.
[19] abbreviates: Homo sapiens, A549, 48 h, read-out: A-549 GI50, SRB assay, 48 hours exposure.
Setting [20] is: Homo sapiens, A549, 48 h, read-out: A-549 LC50, SRB assay, 48 hours exposure.
Setting [21] is: read-out: GI50 HT-29, SRB assay, 48 hours exposure.
Where [22] appears, read: read-out: LC50 HT-29, SRB assay, 48 hours exposure.
[23] abbreviates: read-out: GI50 H-MEC-1, SRB assay, 48 hours exposure.
[24] abbreviates: read-out: GI50 A-549, SRB assay, 48 hours exposure.
Where [25] appears, read: read-out: LC50 A-549, SRB assay, 48 hours exposure.

For orientation: GI50 means the concentration at which growth is held to half of that of the control. Take `CSc1nccc2c(-c3cccc([N+](=O)[O-])c3)c3cccnc3n12` [Compound 59]: the GI50 in data set [1] (setting [16]), in data set [2] (setting [18]) and in data set [4] (setting [19]) was 29.7 µM in each case. Further, the CC50 in data set [1] (setting [17]) and in data set [4] (setting [20]) was 29.7 µM in each case. For the same compound, the “HT-29 TGI” value in [1] (SRB assay, 48 hours exposure) is 2.97E−05. Besides, the “H-MEC-1 TGI” value in data set [2] (SRB assay, 48 hours exposure) is reported as 2.97E−05. The compound further had a CC50 at 48 h in [3] (H-MEC-1 LC50, SRB assay) of 29.7 µM. Besides, in data set [4] (SRB assay, 48 hours exposure), the “A-549 TGI” value turned out to be 2.97E−05.
As to `Nc1nccc2c(-c3ccccc3)c3cccnc3n12` [Compound 63], the GI50 in data set [1] (setting [16]), in [2] (setting [18]) and in [4] (setting [19]) was at least 38.4 µM throughout. For the same compound, the CC50 in data set [1] (setting [17]) and in [4] (setting [20]) was at least 38.4 µM each time. In data set [1] (SRB assay, 48 hours exposure), the “HT-29 TGI” value is recorded as 3.84E−05. For the same compound, the “H-MEC-1 TGI” value in data set [2] (SRB assay, 48 hours exposure) was 3.84E−05. In [3] (H-MEC-1 LC50, SRB assay), this compound showed a CC50 at 48 h of at least 38.4 µM. Moreover, in data set [4] (SRB assay, 48 hours exposure), the “A-549 TGI” value amounted to 3.84E−05.
Regarding `COc1cccc(-c2c3cccnc3n3c(N)nccc23)c1.Cl` [Compound 67], the GI50 in [1] (setting [16]) came to 30.6 µM; in data set [2] (Homo sapiens, HMEC-1, 48 h, read-out: GI50 H-MEC-1, SRB assay, 48 hours exposure) it was 30.6 µM; in data set [4] (Homo sapiens, A549, 48 h, read-out: GI50 A-549, SRB assay, 48 hours exposure), 30.6 µM. In addition, the CC50 in [1] (setting [17]) and in data set [4] (setting [20]) was 30.6 µM in each case. Moreover, the “HT-29 TGI” value in data set [1] (SRB assay, 48 hours exposure) stood at 3.06E−05. In addition, the “TGI H-MEC-1” value in data set [2] (SRB assay, 48 hours exposure) amounted to 3.06E−05. In addition, the CC50 at 48 h in data set [3] (LC50 H-MEC-1, SRB assay) was determined as 30.6 µM. In [4] (SRB assay, 48 hours exposure), the “A-549 TGI” value is given as 3.06E−05.
Take `COc1nccc(-c2c3cccnc3n3c(N)nccc23)n1` [Compound 76]: the “TGI IGROV-ET” value in data set [5] is 2.04E−06. Moreover, the GI50 in [5] stood at 0.649 µM; in data set [6], 1.22 µM; in [7], 0.725 µM; in data set [8], 0.773 µM; in data set [9], 0.65 µM; in data set [10], 0.359 µM. Besides, the GI50 came out at 0.542 µM in [11]; 1.02 µM in [12]; 0.163 µM in data set [13]; 0.77 µM in data set [1] (setting [21]); 0.0777 µM in data set [2] (setting [23]); 0.541 µM in [14]. Besides, the GI50 came to 0.407 µM in data set [4] (setting [24]) and 0.0729 µM in data set [15] (read-out: GI50 LN-caP, SRB assay, 48 hours exposure). Moreover, the CC50 in [5] is at least 34.2 µM; in data set [6], 34.3 µM; in data set [7] it was 3.42 µM; in data set [8], at least 34.2 µM; in [10], 1.79 µM; in data set [11], 3.42 µM. In addition, the CC50 in [12] was 5.92 µM; in data set [13], at least 34.2 µM; in data set [1] (setting [22]), at least 34.2 µM; in data set [2] (SRB assay, 48 hours exposure) it was 1.56 µM; in data set [14], 2.71 µM; in [4] (setting [25]) it was 7.7 µM. The CC50 in data set [15] (Homo sapiens, LNCaP, 48 h) turned out to be 3.08 µM. Moreover, the “TGI SKOV-3” value in data set [6] was 3.42E−06. Also, the “TGI IGROV” value in data set [7] was 1.77E−06. In addition, the “TGI LOVO-DOX” value in data set [8] is reported as 3.42E−07. In addition, the “TGI PANC-1” value in [9] is given as 2.15E−06. Besides, the “TGI MEL-28” value in data set [10] amounted to 8.01E−07. Besides, the “TGI DU-145” value in data set [11] was 1.42E−06. For the same compound, in data set [12], the “TGI K-562” value turned out to be 2.28E−06. The “TGI LOVO” value in data set [13] is 6.81E−07. Also, the “TGI HT-29” value in [1] (SRB assay, 48 hours exposure) came out at 3.42E−06. Also, the “TGI H-MEC-1” value in data set [2] (SRB assay, 48 hours exposure) came out at 2.27E−07. For the same compound, the “TGI SK-BR-3” value in data set [14] came to 1.21E−06. The “TGI A-549” value in [4] (SRB assay, 48 hours exposure) amounted to 1.49E−06. Also, the “TGI LN-caP” value in data set [15] (SRB assay, 48 hours exposure) came to 4.55E−07.
On to `CCOc1nccc(-c2c3cccnc3n3c(N)nccc23)n1` [Compound 77], for which the “TGI IGROV-ET” value in data set [5] came out at 1.61E−06. In addition, the GI50 in data set [5] worked out at 0.555 µM; in data set [6] it was 1.3 µM; in [7] it was 1.3 µM; in data set [8], 0.702 µM; in data set [9], 1.16 µM; in data set [10], 0.398 µM. The GI50 was determined as 0.63 µM in data set [11]; 1.21 µM in data set [12]; 0.629 µM in [13]; 0.829 µM in data set [1] (setting [21]); 0.206 µM in [2] (setting [23]); 0.643 µM in data set [14]. The GI50 in [4] (setting [24]) was at least 32.6 µM; in [15] (Homo sapiens, LNCaP, 48 h, read-out: GI50 LN-caP, SRB assay, 48 hours exposure), 0.617 µM. Also, the CC50 in data set [5] is at least 32.6 µM; in data set [6], 3.26 µM; in data set [7], at least 32.6 µM; in data set [8] it was 15.1 µM; in [9] (read-out: LC50 PANC-1) it was at least 32.6 µM; in data set [10], 2.16 µM. The CC50 in [11] was 27.8 µM; in data set [12], at least 32.6 µM; in data set [13] it was at least 32.6 µM; in data set [1] (setting [22]), 3.26 µM; in data set [2] (SRB assay, 48 hours exposure) it was 1.26 µM; in data set [14] it was 2.79 µM. The CC50 in data set [4] (setting [25]) is over 32.6 µM; in data set [15] (Homo sapiens, LNCaP, 48 h) it was 2.96 µM. The “TGI SKOV-3” value in data set [6] was determined as 3.26E−06. Further, the “TGI IGROV” value in data set [7] is 2.74E−06. Further, the “TGI LOVO-DOX” value in data set [8] came to 2.79E−06. Besides, the “TGI PANC-1” value in data set [9] is on record as 7.80E−06. Moreover, in [10], the “TGI MEL-28” value is recorded as 9.24E−07. Also, the “TGI DU-145” value in data set [11] was 1.68E−06. Also, the “TGI K-562” value in data set [12] is 3.26E−05. Further, the “TGI LOVO” value in data set [13] turned out to be 2.02E−06. For the same compound, in data set [1] (SRB assay, 48 hours exposure), the “TGI HT-29” value is on record as 3.26E−06. In data set [2] (SRB assay, 48 hours exposure), the “TGI H-MEC-1” value is 3.21E−07. In [14], the “TGI SK-BR-3” value came out at 1.34E−06. In addition, the “TGI A-549” value in data set [4] (SRB assay, 48 hours exposure) stood at 3.26E−05. Moreover, the “TGI LN-caP” value in data set [15] (SRB assay, 48 hours exposure) came out at 1.35E−06.
